Test results published in patent US8178677B2, “Hydroxyalkyl substituted imidazoquinolines” (3M Innovative Properties Company, priority 2005, dated 2012).
Where two headings read alike, the source gives them in different places.

How the values were obtained:
[1] = system: interferon (α) (IFN-α) induction in human peripheral blood mononuclear cells (PBMC); test: Cytokine induction in human cells (PBMC): IFN-α secreted into culture media, ELISA; assay type: cell-based; settings: read-out: Minimum Effective Concentration (μM) IFN
Description: (§1) Cytokine Induction in Human Cells
(§2) An in vitro human blood cell system is used to assess cytokine induction. Activity is based on the measurement of interferon (α) and tumor necrosis factor (α) (IFN-α and TNF-α, respectively) secreted into culture media as described by Testerman et. al. in “Cytokine Induction by the Immunomodulators Imiquimod and S-27609”, Journal of Leukocyte Biology, 58, 365-372 (September, 1995).
(§3) Blood Cell Preparation for Culture
(§4) Whole blood from healthy human donors is collected by venipuncture into vacutainer tubes or syringes containing EDTA. Peripheral blood mononuclear cells (PBMC) are separated from whole blood by density gradient centrifugation using HISTOPAQUE-1077 (Sigma, St. Louis, Mo.) or Ficoll-Paque Plus (Amersham Biosciences Piscataway, N.J.). Blood is diluted 1:1 with Dulbecco's Phosphate Buffered Saline (DPBS) or Hank's Balanced Salts Solution (HBSS). Alternately, whole blood is placed in Accuspin (Sigma) or LeucoSep (Greiner Bio-One, Inc., Longwood, Fla.) centrifuge frit tubes containing density gradient medium. The PBMC layer is collected and washed twice with DPBS or HBSS and re-suspended at 4×10^6 cells/mL in RPMI complete. The PBMC suspension is added to 96 well flat bottom sterile tissue culture plates containing an equal volume of RPMI complete media containing test compound.
(§5) The compounds are solubilized in dimethyl sulfoxide (DMSO). The DMSO concentration should not exceed a final concentration of 1% for addition to the culture wells. The compounds are generally tested at concentrations ranging from 30-0.014 μM. Controls include cell samples with media only, cell samples with DMSO only (no compound), and cell samples with reference compound.
(§6) The solution of test compound is added at 60 μM to the first well containing RPMI complete and serial 3 fold dilutions are made in the wells. The PBMC suspension is then added to the wells in an equal volume, bringing the test compound concentrations to the desired range (usually 30-0.014 μM). The final concentration of PBMC suspension is 2×10^6 cells/mL. The plates are covered with sterile plastic lids, mixed gently and then incubated for 18 to 24 hours at 37° C. in a 5% carbon dioxide atmosphere.
(§7) Following incubation the plates are centrifuged for 10 minutes at 1000 rpm (approximately 200×g) at 4° C. The cell-free culture supernatant is removed and transferred to sterile polypropylene tubes. Samples are maintained at −30 to −70° C. until analysis. The samples are analyzed for IFN-α by ELISA and for TNF-α by IGEN/BioVeris Assay.
(§8) Interferon (α) and Tumor Necrosis Factor (α) Analysis
IFN-α concentration is determined with a human multi-subtype calorimetric sandwich ELISA (Catalog Number 41105) from PBL Biomedical Laboratories, Piscataway, N.J. Results are expressed in pg/mL.
(§9) In total, the data output of the assay consists of concentration values of TNF-α and IFN-α (y-axis) as a function of compound concentration (x-axis).
Analysis of the data has two steps. First, the greater of the mean DMSO (DMSO control wells) or the experimental background (usually 20 pg/mL for IFN-α and 40 pg/mL for TNF-α) is subtracted from each reading. If any negative values result from background subtraction, the reading is reported as “*”, and is noted as not reliably detectable. In subsequent calculations and statistics, “*”, is treated as a zero. Second, all background subtracted values are multiplied by a single adjustment ratio to decrease experiment to experiment variability. The adjustment ratio is the area of the reference compound in the new experiment divided by the expected area of the reference compound based on the past 61 experiments (unadjusted readings). […] The reference compound used is 2-[4-amino-2-ethoxymethyl-6,7,8,9-tetrahydro-α,α-dimethyl-1H-imidazo[4,5-c]quinolin-1-yl]ethanol hydrate (U.S. Pat. No. 5,352,784; Example 91) and the expected area is the sum of the median dose values from the past 61 experiments. […]

[2] = system: tumor necrosis factor (α) (TNF-α) induction in human peripheral blood mononuclear cells (PBMC); test: Cytokine induction in human cells (PBMC): TNF-α secreted into culture media, ORIGEN M-Series immunoassay; assay type: cell-based; settings: for minimal effective concentration: Homo sapiens, PBMC, read-out: Minimum Effective Concentration (μM) TNF; for Maximal Response (pg/mL) TNF: maximal response in dose response curve, background-subtracted, reference-adjusted, * = below background of 40 pg/mL
Description: as §1, §2, §3, §4, §5, §6, §7, §8
The TNF-α concentration is determined by ORIGEN M-Series Immunoassay and read on an IGEN M-8 analyzer from BioVeris Corporation, formerly known as IGEN International, Gaithersburg, Md. The immunoassay uses a human TNF-α capture and detection antibody pair (Catalog Numbers AHC3419 and AHC3712) from Biosource International, Camarillo, Calif. Results are expressed in pg/mL.
as §9
Analysis of the data has two steps. First, the greater of the mean DMSO (DMSO control wells) or the experimental background (usually 20 pg/mL for IFN-α and 40 pg/mL for TNF-α) is subtracted from each reading. If any negative values result from background subtraction, the reading is reported as “*”, and is noted as not reliably detectable. In subsequent calculations and statistics, “*”, is treated as a zero. Second, all background subtracted values are multiplied by a single adjustment ratio to decrease experiment to experiment variability. The adjustment ratio is the area of the reference compound in the new experiment divided by the expected area of the reference compound based on the past 61 experiments (unadjusted readings). […]

[3] = lowest tested concentration inducing IFN-α over 20 pg/mL, median where more than one experiment
[4] = lowest tested concentration inducing TNF-α over 40 pg/mL, median where more than one experiment
[5] = median where more than one experiment

Compound	minimal effective concentration [1, 3] [µM]	minimal effective concentration [2, 4] [µM]	Maximal Response (pg/mL) TNF [2, 5]	melting point [°C]	minimal effective concentration ([1]; 18 to 24 hours incubation, tested 30-0.014 μM, lowest concentration inducing response over 20 pg/mL IFN-α, median of # experiments) [µM]	minimal effective concentration ([2]; 18 to 24 hours incubation, tested 30-0.014 μM, lowest concentration inducing response over 40 pg/mL TNF-α, median of # experiments) [µM]
CS(=O)(=O)NCCCCn1c(CO)nc2c(N)nc3ccccc3c21 [Example 147, N-[4-(4-amino-2-hydroxymethyl-1H-imidazo[4,5-c]quinolin-1-yl)butyl]methanesulfonamide]	0.37	> 30	* (TNF below experimental background of 40 pg/mL.)	216 to 219		
CC(C)(Cn1c(CO)nc2c(N)nc3ccccc3c21)NS(C)(=O)=O [Example 7, N-[2-(4-Amino-2-hydroxymethyl-1H-imidazo[4,5-c]quinolin-1-yl)-1,1-dimethylethyl]methanesulfonamide]	3.33	30		262 to 265	3.33	30
CC(C)(Cn1c(CO)nc2c(N)nc3ccccc3c21)CS(C)(=O)=O [Example 143, {4-Amino-1-[2,2-dimethyl-3-(methylsulfonyl)propyl]-1H-imidazo[4,5-c]quinolin-2-yl}methanol]	1.11	30		230 to 232		
CC(C)C(=O)NCCCn1c(CCO)nc2c(N)nc3ccccc3c21 [Example 141, N-{3-[4-Amino-2-(2-hydroxyethyl)-1H-imidazo[4,5-c]quinolin-1-yl]propyl}-2-methylpropionamide]	0.04	30		196 to 198		
CS(=O)(=O)NCCCCn1c(CCO)nc2c(N)nc3ccccc3c21 [Example 3, N-{4-[4-Amino-2-(2-hydroxyethyl)-1H-imidazo[4,5-c]quinolin-1-yl]butyl}methanesulfonamide]	0.37	> 30	* (TNF below experimental background of 40 pg/mL.)	206 to 208		
CC(C)NC(=O)NCCn1c(CO)nc2c(N)nc3ccccc3c21 [Example 144, N-{2-[4-amino-2-(hydroxymethyl)-1H-imidazo[4,5-c]quinolin-1-yl]ethyl}-N′-isopropylurea]	0.37	3.33		> 240		
